In publication PMC3726930, “Synthesis and Biological Activity of N-Sulfonyltripeptides with C-Terminal Arginine as Potential Serine Proteases Inhibitors” (International Journal of Peptide Research and Therapeutics, 2012):
Like-named read-outs stand apart in the source and are kept apart here. Where a SMILES comes first, the peptide text is derived from it. Where no end group is shown, it is not given here. [ ]: non-standard residue; d: D form. The star is where a group is joined. Nva = CCC[C@H](N)C(=O)O; Ms = CS(=O)(=O)*; CH2Cl = ClC*

Columns and labels:
MDA-MB-231 cells = conditions: 24 h
DLD cells = conditions: 24 h
urokinase [1] = molecular target: T1, urokinase (Homo sapiens, UniProt P00749); assay: Amidolytic activity of urokinase, substrate S-2444; assay type: biochemical; conditions: Ki calculated from IC50 by Cheng-Prusoff; triplicate; n.i. = no effect at maximum concentration 20 mM; read-out: Ki ± SD Urokinase S-2444
Experimental: Determination of amidolytic activity was performed as previously described (Okada et al. [1988]). The detailed description of the method is given below. The buffer and the enzyme solution included: • tris buffer—0.6 ml (pH 8.8),
enzyme: urokinase (50 U/ml),
synthetic substrate: S-2444 (0.1 ml, 3 mM); • (b) tris buffer—0.5 ml (pH 8.4),
(§1) Buffer and 0.1 ml of enzyme solution was added to 0.2 ml of examined compound dissolved in 0.15 M NaCl (1–17) (as control 0.15 M NaCl). The mixture was incubated for 3 min at 37 °C, then the synthetic substrate was added. After 20 min of incubation, the reaction was stopped by adding 0.1 ml of 50 % acetic acid, and the absorbance of the released p-nitroaniline was measured at 405 nm (Spekol 1300, AnalyticJena). Every value represents the average of the triplicate determination. IC50 value was considered as the concentration of the inhibitor, which decreased the absorbance at 405 nm by 50 %, compared with the absorbance measured under the same conditions without the inhibitor. Ki was calculated from IC50 based on Cheng–Prusoff equation (Cheng and Prusoff [1973]).

plasmin = molecular target: T2, plasmin (Homo sapiens, UniProt P00747); assay: Amidolytic activity of plasmin, substrate S-2251; assay type: biochemical; conditions: Ki calculated from IC50 by Cheng-Prusoff; triplicate; read-out: Ki ± SD Plasmin S-2251
T2 construct: converts the pro-enzyme plasminogen into its active form plasmin; purchased Chromogenix (Milano, Italy)
T2 sequence (P00747 581-810 limits assumed): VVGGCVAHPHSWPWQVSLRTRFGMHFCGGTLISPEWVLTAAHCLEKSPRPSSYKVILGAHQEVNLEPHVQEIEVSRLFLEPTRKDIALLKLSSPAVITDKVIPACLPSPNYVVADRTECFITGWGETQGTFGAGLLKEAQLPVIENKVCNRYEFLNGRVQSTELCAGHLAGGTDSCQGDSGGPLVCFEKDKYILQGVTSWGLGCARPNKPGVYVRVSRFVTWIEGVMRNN
T2 sequence (P00747 97-580 partner limits assumed): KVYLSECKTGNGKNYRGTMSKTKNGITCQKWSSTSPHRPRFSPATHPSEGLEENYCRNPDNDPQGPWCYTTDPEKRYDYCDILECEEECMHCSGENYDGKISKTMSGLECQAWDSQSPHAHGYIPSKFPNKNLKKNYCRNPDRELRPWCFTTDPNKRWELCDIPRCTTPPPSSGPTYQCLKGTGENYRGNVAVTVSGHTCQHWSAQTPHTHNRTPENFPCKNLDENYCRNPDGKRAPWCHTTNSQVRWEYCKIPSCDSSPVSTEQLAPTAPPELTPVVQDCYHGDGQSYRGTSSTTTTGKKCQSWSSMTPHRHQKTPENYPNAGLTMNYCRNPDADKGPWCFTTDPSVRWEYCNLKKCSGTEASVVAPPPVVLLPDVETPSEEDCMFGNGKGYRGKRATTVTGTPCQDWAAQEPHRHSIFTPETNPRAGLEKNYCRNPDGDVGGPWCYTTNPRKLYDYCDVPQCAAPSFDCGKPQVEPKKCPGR
Experimental: (§2) Determination of amidolytic activity was performed as previously described (Okada et al. [1988]). The detailed description of the method is given below. The buffer and the enzyme solution included: • tris buffer—0.6 ml (pH 8.8), […]
as §1, with “synthetic substrate: S-2238 (0.2 ml, 0.75 mM); • (c) tris buffer—0.5 ml (pH 7.4), enzyme: plasmin (0.4 U/ml), synthetic substrate: S-2251 (0.2 ml, 3 mM); • (d) […] buffer—0.5 ml (pH 7.5), Buffer” for “Buffer”

thrombin = thrombin (Bos taurus, UniProt P00735); assay: Amidolytic activity of thrombin, substrate S-2238; assay type: biochemical; conditions: Ki calculated from IC50 by Cheng-Prusoff, n.i. = no effect at maximum concentration 20 mM, read-out: Ki ± SD Thrombin
Experimental: as §2
as §1, with “synthetic substrate: S-2444 (0.1 ml, 3 mM); • (b) tris buffer—0.5 ml (pH 8.4), enzyme: thrombin (1 U/ml), synthetic substrate: S-2238 (0.2 ml, 0.75 mM); • (c) tris buffer—0.5 ml (pH 7.4), Buffer” for “Buffer”

urokinase [2] = molecular target: T1, urokinase; conditions: cited from earlier work
urokinase [3] = molecular target: T1, urokinase; assay: Urokinase inhibition, literature or earlier data; assay type: biochemical; conditions: author's unpublished data, corresponding to earlier IC50 values
[4] = ref Markowska et al. [2008], read-out: IC50 urokinase

| IC50 (MDA-MB-231 cells) [µM] | IC50 (DLD cells) [µM] | Ki (urokinase [1]) [µM] | Ki (plasmin) [µM] | Ki (thrombin) [µM] | Compound | further results |
| --- | --- | --- | --- | --- | --- | --- |
| 450 | 260 |  |  |  | CS(=O)(=O)N[C@H](CO)C(=O)NCC(=O)N[C@@H](CCCNC(=N)N)C(=O)NCCCCCN [Compound 6, CH3PhSO2-D-Ser-Gly-Arg-NH-(CH2)5-NH2] |  |
| 480 | 390 | > 20000 | 90.9 ± 7.27 | > 20000 | CC(C)c1cc(C(C)C)c(S(=O)(=O)N[C@H](CO)C(=O)N[C@@H](C)C(=O)N[C@@H](CCCNC(=N)N)C(=O)NCCCCCN)c(C(C)C)c1 [Compound 2, 2,4,6-TriiPrPhSO2-D-Ser-Ala-Arg-NH-(CH2)5-NH2] |  |
| 510 | 150 | 44.6 ± 3.57 | 56.4 ± 4.51 | > 20000 | CC(C)c1cc(C(C)C)c(S(=O)(=O)N[C@H](CO)C(=O)NCC(=O)N[C@@H](CCCNC(=N)N)C(=O)NCCCCCN)c(C(C)C)c1 [Compound 5, 2,4,6-TriiPrPhSO2-D-Ser-Gly-Arg-NH-(CH2)5-NH2] |  |
|  |  |  |  |  | H-D-Ser-Ala-Arg-NH-(CH2)5-NH2 | Ki (urokinase [2]; ref Markowska et al. [2010]): 6.3 µM |
| 660 | 330 | > 20000 | 52.7 ± 4.22 | > 20000 | CCC[C@H](NC(=O)[C@@H](CO)NS(=O)(=O)c1c(C(C)C)cc(C(C)C)cc1C(C)C)C(=O)N[C@@H](CCCNC(=N)N)C(=O)NCCCCCN [Compound 8, 2,4,6-TriiPrPhSO2-D-Ser-NVa-Arg-NH-(CH2)5-NH2] |  |
| 620 | 50 |  |  |  | CCC[C@H](NC(=O)[C@@H](CO)NS(C)(=O)=O)C(=O)N[C@@H](CCCNC(=N)N)C(=O)NCCCCCN [Compound 9, CH3PhSO2-D-Ser-NVa-Arg-NH-(CH2)5-NH2] |  |
| 650 | 270 | > 20000 | 167 ± 13.4 | > 20000 | CCC[C@H](NC(=O)[C@@H](CO)NS(C)(=O)=O)C(=O)N[C@@H](CCCNC(=N)N)C(=O)O [Compound 15, CH3PhSO2-D-Ser-NVa-Arg-OH] (Ms-[dS]-[Nva]-Arg-OH; N-terminus and C-terminus assumed) |  |
|  |  |  |  |  | Glu-Gly-Arg-CH2Cl | Ki (urokinase [2]; ref Lijnen et al. [1987]): 5 µM |
| 570 | 390 |  |  |  | C[C@H](NC(=O)[C@@H](CO)NS(C)(=O)=O)C(=O)N[C@@H](CCCNC(=N)N)C(=O)NCCCCCN [Compound 3, CH3PhSO2-D-Ser-Ala-Arg-NH-(CH2)5-NH2] |  |
|  |  |  |  |  | phenethylsulfonyl-D-Ser-Ala-Arg-H | IC50 (urokinase [2]; ref Tamura et al. [2000], read-out: IC50 uPA): 0.0031 µM |
| 680 | 340 | > 20000 | 112 ± 8.95 | > 20000 | CCC[C@H](NC(=O)[C@@H](CO)NS(=O)(=O)Cc1ccccc1)C(=O)N[C@@H](CCCNC(=N)N)C(=O)NCCCCCN [Compound 7, PhCH2SO2-D-Ser-NVa-Arg-NH-(CH2)5-NH2] |  |
| 640 | 5 | 5.4 ± 0.43 | 103 ± 8.22 | 0.97 ± 0.08 | N=C(N)NCCC[C@H](NC(=O)CNC(=O)[C@@H](CO)NS(=O)(=O)Cc1ccccc1)C(=O)O [Compound 10, PhCH2SO2-D-Ser-Gly-Arg-OH] |  |
|  |  |  |  |  | α-tolyl-SO2-D-Ser-Ala-Arg-OH | Ki (urokinase [2]; ref Markowska et al. [2010]): 24 µM |
| 510 | 250 | > 20000 | 139 ± 11.1 | > 20000 | N=C(N)NCCC[C@H](NC(=O)CNC(=O)[C@H](N)CO)C(=O)NCCCCCN [Compound 17, H-D-Ser-Gly-Arg-NH-(CH2)5-NH2] |  |
| 590 | 220 |  |  |  | CCC[C@H](NC(=O)[C@@H](CO)NS(=O)(=O)c1c(C(C)C)cc(C(C)C)cc1C(C)C)C(=O)N[C@@H](CCCNC(=N)N)C(=O)O [Compound 14, 2,4,6-TriiPrPhSO2-D-Ser-NVa-Arg-OH] |  |
|  |  |  |  |  | H-D-Ser-NVa-Arg-OH | Ki (urokinase [2]; ref Markowska et al. [2011]): 0.85 µM |
|  |  |  |  |  | N=C(N)NCCC[C@H](NC(=O)CNC(=O)[C@H](N)CO)C(=O)O [H-D-Ser-Gly-Arg-OH] (H-[dS]-Gly-Arg-OH) | Ki (urokinase [3]): 90 µM; IC50 (urokinase [2]; [4]): 1000 µM |
|  |  |  |  |  | C[C@H](NC(=O)[C@H](N)CO)C(=O)N[C@@H](CCCNC(=N)N)C(=O)O [H-D-Ser-Ala-Arg-OH] (H-[dS]-Ala-Arg-OH) | Ki (urokinase [3]): 180 µM; IC50 (urokinase [2]; [4]): 2000 µM |
| 570 | 110 | 15.8 ± 1.27 | 89.1 ± 7.13 | > 20000 | CC(C)c1cc(C(C)C)c(S(=O)(=O)N[C@H](CO)C(=O)NCC(=O)N[C@@H](CCCNC(=N)N)C(=O)O)c(C(C)C)c1 [Compound 11, 2,4,6-TriiPrPhSO2-D-Ser-Gly-Arg-OH] |  |
| 480 | 460 | > 20000 | 2 ± 0.16 | > 20000 | C[C@H](NC(=O)[C@@H](CO)NS(=O)(=O)Cc1ccccc1)C(=O)N[C@@H](CCCNC(=N)N)C(=O)NCCCCCN [Compound 1, PhCH2SO2-D-Ser-Ala-Arg-NH-(CH2)5-NH2] |  |
| 490 | 260 | > 20000 | 137 ± 11 | > 20000 | CCC[C@H](NC(=O)[C@H](N)CO)C(=O)N[C@@H](CCCNC(=N)N)C(=O)NCCCCCN [Compound 16, H-D-Ser-NVa-Arg-NH-(CH2)5-NH2] |  |
| 650 | 180 | > 20000 | 13.6 ± 1.09 | 0.82 ± 0.06 | CCC[C@H](NC(=O)[C@@H](CO)NS(=O)(=O)Cc1ccccc1)C(=O)N[C@@H](CCCNC(=N)N)C(=O)O [Compound 13, PhCH2SO2-D-Ser-NVa-Arg-OH] |  |
| 580 | 320 | > 20000 | 58.2 ± 4.65 | > 20000 | N=C(N)NCCC[C@H](NC(=O)CNC(=O)[C@@H](CO)NS(=O)(=O)Cc1ccccc1)C(=O)NCCCCCN [Compound 4, PhCH2SO2-D-Ser-Gly-Arg-NH-(CH2)5-NH2] |  |
